The source of these data is patent US9452194B2, “Methods for treating HCV” (AbbVie Inc., priority 2011, dated 2016).

One series has as its system 1a-H77 replicons. The experiment in a line: Predominant resistant variants selected in replicons, fold resistance. The class given is cell-based, Hepatitis C virus. How it is done: (§1) Predominant resistant variants selected by Compound 1, 2, or 4 in genotype 1 replicons were also determined.
On the technique in general: A replicon is a self-replicating genome or part of one, used to study replication in cells.

For another series, the system named is 1b-Con1 replicons. Described as above. The class given is cell-based, Hepatitis C virus. The protocol: as §1
Series [1] in a line: Bioavailability of solid formulation of Compound 2 with increased binder. Particulars: 250 mg in the improved formulation versus 400 mg in the original formulation. It counts as in vivo.

Take `Cc1cnc(C(=O)N[C@H]2CCCCC/C=C\[C@@H]3C[C@@]3(C(=O)NS(=O)(=O)C3CC3)NC(=O)[C@@H]3C[C@@H](Oc4nc5ccccc5c5ccccc45)CN3C2=O)cn1` [Compound 1, (2R,6S,13aS,14aR,16aS,Z)-N-(cyclopropylsulfonyl)-6-(5-methylpyrazine-2-carboxamido)-5,16-dioxo-2-(phenanthridin-6-yloxy)-1,2,3,5,6,7,8,9,10,11,13a,14,14a,15,16,16a-hexadecahydrocyclopropa[e]pyrrolo[1,2-a][1,4]diazacyclopentadecine-14a-carboxamide]: the fold resistance turned out to be 48 fold with 1a-H77 replicons (variant D168A); 26 fold with 1a-H77 replicons (variant R155K); 9 fold in the series with 1b-Con1 replicons (variant A156T); 190 fold in the series with 1b-Con1 replicons (variant D168V); 48 fold in the series with 1b-Con1 replicons (variant R155K).

As for `COc1c(-c2ccc3cc(NS(C)(=O)=O)ccc3c2)cc(-n2ccc(=O)[nH]c2=O)cc1C(C)(C)C` [Compound 2, N-(6-(3-tert-butyl-5-(2,4-dioxo-3,4-dihydropyrimidin-1(2H)-yl)-2-methoxyphenyl)naphthalen-2-yl)methanesulfonamide], the fold resistance came out at 1600 fold in the series with 1a-H77 replicons (variant C316Y); 36 fold with 1a-H77 replicons (variant M414T); 15 fold in the series with 1a-H77 replicons (variant S556G); 980 fold in the series with 1a-H77 replicons (variant Y448C); 1400 fold in the series on 1b-Con1 replicons (variant C316Y); 100 fold in the series with 1b-Con1 replicons (variant D559G). Also, the fold resistance in the series with 1b-Con1 replicons (variant M414T) was found to be 26 fold. The “bioequivalence of improved solid formulation (increased amount of binder, e.g. copovidone)” value in series [1] is “bioequivalent”.

As to `COC(=O)N[C@H](C(=O)N1CCC[C@H]1C(=O)Nc1ccc([C@@H]2CC[C@@H](c3ccc(NC(=O)[C@@H]4CCCN4C(=O)[C@@H](NC(=O)OC)C(C)C)cc3)N2c2ccc(C(C)(C)C)cc2)cc1)C(C)C` [Compound 4], the fold resistance in the series with 1a-H77 replicons (variant M28T) is given as 9000 fold; in the series on 1a-H77 replicons (variant M28V) it was 60 fold; with 1a-H77 replicons (variant Q30R), 800 fold; with 1a-H77 replicons (variant Y93C) it was 1700 fold; in the series with 1a-H77 replicons (variant Y93H), 41000 fold; in the series on 1b-Con1 replicons (variant Y93H), 55 fold.
